Data: patent US20230338454A1, “FORSYTHIA SUSPENSA COMPONENT AND OPTIONAL PANAX GINSENG COMPONENT AND THE APPLICATION” (priority 2020, published 2023)
Where two headings read alike, the source gives them in different places.

Assays:
parainfluenza virus [1] = format: in vivo, Kunming mice
[2] = system: epithelial cells of plantar sweat glands of rats; experiment: Sweat secretion of rat paw (histomorphology observation method); format: in vivo, Wistar rats; conditions: 1 h after gavage, dose not given
Text: After sweat glands activation in rats, besides the increase of sweat secretion, the morphology of the epithelial cells of the sweat glands changes accordingly. Under the optical microscope, the increase and enlargement of vacuoles in the epithelial cells of the sweat glands are observed. Under an electron microscope, the enlarged vacuoles appear to be due to swelling and rupture of mitochondria, enlargement of fusion and secretory vesicles in the epithelial cells of sweat glands. The secretory activity of sweat glands could be understood by observing the histomorphology of the epithelial cells of plantar sweat glands of rats. Three hundred Wistar rats, half male and half female, weighing 120-160 g. were taken in the study. […] Except for the pilocarpine solution given by subcutaneous injection, other groups were administered by gavage. One hour after the control group was given 0.5% carboxymethyl cellulose, 30 min after the positive drug group was given pilocarpine, and 1 h after the administration of forsythin, ginsenoside Rg3 and the panax ginseng-forsythia suspensa composition, the right hind limb was immediately cut off at the level of the ankle joint. […] Observations were made under an optical microscope for changes in the epithelial cells of the plantar sweat glands of rats in each group, mainly the incidence of vacuoles. The statistical processing was performed by X^2 test, and differences among the groups were compared. The above study was repeated for 3 times.

parainfluenza virus [3] = format: in vivo, Kunming mice; remark: listed apart in the source
[4] = system: respiratory syncytial virus (RSV); experiment: Effect of drugs on viral cytopathic effect, effective antiviral rate (ER%); format: cell-based; conditions: Vero cells, 100TCID50, drug at maximum non-toxic concentration, 72 h, MTT
[5] = system: Coxsackievirus A16 (CoxA16); experiment: as above; format: cell-based; conditions: Vero cells, 100TCID50, drug at maximum non-toxic concentration, 72 h, MTT
enterovirus 71 (EV71) = experiment: as above; format: cell-based; conditions: Vero cells, 100TCID50, drug at maximum non-toxic concentration, 72 h, MTT
HCMV AD169 strain = experiment: Inhibitory effect on HCMV in vitro (MEC, therapeutic index); format: cell-based, human cytomegalovirus; conditions: HCMV AD169, 100 times TCD50, 10 days of culture
Procedure: Human embryonic lung fibroblast cell strain (purchased from Sino Best Biological Technology Co., Ltd.). The cells were cultured and subcultured according to the conventional method.
HCMV AD169 strain was purchased from American Type Culture Collection (ATCC).
Cells were inoculated in a 96-well plate, allowed to grow into monolayers, and inoculated with a virus challenge of 100 times TCD50. Starting from TD0, each drug was diluted stepwise according to 10-fold gradient to prepare 5 concentrations, with 4 wells set for each concentration. In addition, 4 wells of normal cell control and 4 wells of virus control were set.

[6] = system: Human embryonic lung fibroblast cell strain; experiment: Drug toxicity testing (MTT and cytopathic effect methods), maximum non-toxic concentration TD0; conditions: human embryonic lung fibroblasts
[7] = mice infected with parainfluenza virus, 13.0 mg/kg/day by gavage, 5 days
[8] = […], 13.0 mg/kg/day by gavage, 5 days

Structure (SMILES)	Lung index (x̅ ±S) (parainfluenza virus [1]; [7])	Lung index Inhibitory rate (%) (parainfluenza virus [1]; [7])	Lung index compared with the infection model group, in words (parainfluenza virus [1]; mice infected with parainfluenza virus, P < 0.05 or P < 0.01)	Number of vacuolar sweat glands (number) [2] [number]	Vacuolation rate (%) [2]	Hemagglutinin titer (InX) (parainfluenza virus [3]; [8])	Inhibitory rate (%) of hemagglutination titer (parainfluenza virus [3]; [8]) [%]	Effective Antiviral Rates (ER%) RSV [4]	Effective Antiviral Rates (ER%) CoxA16 [5]	Effective Antiviral Rates (ER%) EV71 (enterovirus 71 (EV71))	Lung index (x̅ ±S) (parainfluenza virus [1]; mouse, in vivo, 13 mg/kg/day)	Lung index Inhibitory rate (%) (parainfluenza virus [1]; mouse, in vivo, 13 mg/kg/day)	Hemagglutinin titer (InX) (parainfluenza virus [3]; mouse, in vivo, 13 mg/kg/day)	Inhibitory rate (%) of hemagglutination titer (parainfluenza virus [3]; mouse, in vivo, 13 mg/kg/day) [%]	Minimum effective concentration MEC (HCMV AD169 strain) [mg/L]	Maximum non-toxic concentration TD0 [6] [mg/L]
CC(C)=CCC[C@](C)(O)[C@H]1CC[C@]2(C)[C@@H]1[C@H](O)C[C@@H]1[C@@]3(C)CC[C@H](O[C@@H]4O[C@H](CO)[C@@H](O)[C@H](O)[C@H]4O[C@@H]4O[C@H](CO)[C@@H](O)[C@H](O)[C@H]4O)C(C)(C)[C@@H]3CC[C@]12C [20(R)-Ginsenoside Rg3, 20(R)-ginsenoside Rg3]	1.357±0.050	14.69	decreased significantly	79	20.26^∗∗ %	23.79±1.072	28.15	79.42^∗∗ %	52.33%	74.66^∗∗ %						
COc1ccc([C@H]2OCC3C2CO[C@H]3c2ccc(O[C@@H]3OC(CO)[C@@H](O)[C@H](O)C3O)c(OC)c2)cc1OC (stereo partly drawn) [Forsythin]				86	22.15^∗∗ %			80.40^∗∗ %	75.08^∗∗ %	84.85^∗∗ %	1.335±0.062	16.10	23.17±1.059	30.01	4	40
